Measurements published in patent EP1199078A1, “ANALGESICS” (ONO PHARMACEUTICAL CO., LTD., priority 1999, dated 2000).
Structures can show the parent of a compound that is named as a salt.

Experiments:
[1] = system: formalin model in rats; assay: Formalin test in rats, intrathecal injection; assay type: in vivo, Sprague-Dawley rats; conditions: for number of flinch: both doses, 2 or 20µg/10µl/rat intrathecally 10min prior to formalin, compared to vehicle treated group
Description: (§1) Eight weeks old male Sprague-Dawley rats were used. According to the method of Yaksh et al., the rat was mounted on the brain stereotaxis apparatus under sodium pentobarbital anesthesia and a polyethylene tube filled with saline was threaded approximately 3cm into intraspinal side through the cisternal incision.
A day after implantation, the rat had no hindlimb paralysis was administered 50µl of 5% formalin subcutaneously and was placed in the observational plastic cage immediately. Formalin injection time was regarded as 0min and for 1min every 5min until 60min, number of leg-up response (flinch) was counted. The compound of formula (IA-1) ((+)-trans-3-imino-5-methyl-7-chloro-2-azabicyclo[4.1.0]heptane Monohydrochloride) of the present invention was dissolved in saline, subsequently the dose of 2 or 20µg/10µl/rat was administered intrathecally via polyethylene tube 10min prior to the formalin injection.

[2] = system: Bennett hyperalgesia model in rats; assay: Hyperalgesia to thermostimulus in Bennett model in rats (plantar test), intrathecal injection; assay type: in vivo, Sprague-Dawley rats
Text: as §1, with “Seven” for “Eight”, “al. (J.Physiol. Behav. Vol.17, pp.1031-1036, 1976),” for “al.,”, “about” for “approximately”
A day after implantation, rats had no hindlimb paralysis were restrained in a prostrate position after induction of anesthetization with pentobarbital sodium. According to the method of Bennett and Xie et al. (Pain, Vol.33, pp.87-107, 1988), an incision of 2cm was cut along the skin of the femoral region of the right hindlimb, and the exposed sciatic nerve was constricted with 2 pieces of gut suture at 2 distal sites, and the incision was closed with a piece of silk suture. The left hindlimb was similarly operated on without performing any constriction of the sciatic nerve (sham-operated hindlimb).
Six days after the operation, the response latency to nociceptive thermostimulus was determined with the plantar test device, and rats with hyperalgesia were selected for the drug evaluation study on next day. […] By using a digital timer installed in the plantar testing device, the interval (response latency) from initiation of illumination to the time required for the animal to lift the hindlimb in an attempt to escape was measured. […]

[3] = system: allodynia model in rats; conditions: treatment of 50 µmol/kg, Neuroreport, Vol. 9, pp.367-372 (1998); cited from earlier work

Structure (SMILES)	number of flinch ([1]; first phase (0-10min after formalin injection))	analgetic effects ([1]; formalin test in rats, summary statement)	number of flinch ([1]; second phase (10-60min after formalin injection))	hyperalgesia to nociceptive thermostimulus ([2]; 0.2, 2 or 20µg/10µl/rat intrathecally 20min prior to plantar test, compared to vehicle treated rats)	analgetic effects ([2]; Bennett model in rats, summary statement)	effect on allodynia model [3]
C[C@H]1CC(=N)N[C@@H]2[C@H](Cl)[C@@H]21 [IA-1, (+)-trans-3-imino-5-methyl-7-chloro-2-azabicyclo[4.1.0]heptane Monohydrochloride]	decreased	showed analgetic effects	decreased	improved	showed analgetic effects	–
COC(=O)[C@@H](N)CCCNC(=N)N[N+](=O)[O-] [L-NAME]	–	–	–	–	–	showed effect
